Reference: US20260258471A1, “SYSTEMS AND METHODS FOR MICROCOLONY GROWTH AND MICROBIAL CELL CHARACTERIZATION” (priority 2018, published 2026)
Values after ≈ are worked out from the molar mass of the structure shown.

Legend:
Format in all cases: cell-based
Escherichia coli [1] = assay: LD-AST (local diffusion antimicrobial susceptibility testing) on annular-disk microwell strips
Protocol: In one case, an LD-AST test strip was fabricated following the method of Examples 9A and 10, coating different concentrations of Norfloxacin on the annular disks in 0-16 μg range. Three types of strips were prepared: low volume agar type with 80 μL of gel per microwell, medium volume agar type with 150 μL of gel per microwell, and high-volume agar type with 350 μL of gel per microwell. The corresponding gel thickness was respectively 2 mm, 4 mm, and 9 mm. The annular disks were then placed on the gels. The images of the microwell strip, for the case of low volume agar type, is presented in FIGS. 23A and 23B, where 220, 221, 222, and 223 respectively, refer to the drug impregnated annular disc, the drug exposure region, the guiding ring, and the gel. 1 μL of Escherichia coli cell suspension, which had been prepared according to the method of Example 12, was dispensed into the ROI of each LD-AST unit. The strips were incubated at 37° C. and their ROI were imaged by an epi-illuminated microscope having a 5× objective once every hour. These images are presented in FIGS. 24A-24C (low volume gel), 25A-C (medium volume gel), and 26A-C (high volume gel) for incubation times of t=3hours, t=4hours and t=overnight, respectively.
The labels in FIGS. 24A-24C show the mass of the of the antimicrobial agent that was coated on the annular disk during preparation. […] Despite this time variation, an effective antimicrobial agent concentration may be associated with each microwell. This effective antimicrobial agent concentration may be estimated, for example, by modeling the diffusion of the antimicrobial agent, as in FIG. 21A, or, for example, by comparing the results of the LD-AST assay to a reference assay such as broth microdilution assay.
In the case of low volume gels (FIG. 24A-24C), since the antimicrobial agent is expected rapidly and efficiently diffuse throughout the volume of the solid phase growth medium, and since it is expected that the antimicrobial agent diffuses nearly completely from the annular disk, the effective antimicrobial agent concentration may be estimated by dividing the mass of the antimicrobial agent that was provided on the annular disk by the volume of the gel. […] Accordingly, the effective antimicrobial agent concentration for the case low-volume gels of FIGS. 24A-24C was estimated to be 0.25 times of the drug mass that was impregnated on the disk. For instance, the drug concentration at the drug exposure region of the annular disk loaded by 16 μg of Norfloxacin is 4 μg/mL.
Comparing FIGS. 24B and 24C, one can observe (or computationally determine) that for the LD-AST unit labeled by 0.5 μg (having an estimated effective concentration of 0.1 μg/ml), there appears to be a lack of visible growth between 3 and 4 hours of incubation. This halting in growth was verified by imaging the ROIs after overnight culture, as illustrated in FIG. 24C. As a result, the MIC value for this test was estimated as 0.1 μg/mL. […]
FIG. 25A-25C and 26A-26C, respectively, correspond to intermediate volume (gel volume of 150 μL in microwell) and high volume (gel volume of 350 μL in microwell) cases. In these cases, due to the larger temporal variation in concentration during incubation, an effective antimicrobial agent concentration may be determined by correlating the observed results with a reference microdilution assay. […]

Escherichia coli [2] = assay: conventional microdilution methodology (reference)
Protocol: (§1) Intermediate twofold dilutions of antimicrobial agents in broth (Tryptic soy, and in some cases Brain Heart Infusion). 100 μL of the antimicrobial agent/broth solutions were dispensed into each well of 96-well plates in triplicates. Then, to each well 10 μL of the 5×10^6 CFU/mL cell suspension, which was prepared according to the method of example 5, was added. The plate was sealed and placed in the incubator at 35-37° C. for 16-24 hours for MIC value to be determined.

Escherichia coli [3] = assay: Vitek 2 (Biomerieux) reference AST
[4] = system: Methicillin-resistant Staphylococcus aureus (MRSA 111 with not strong resistance); assay: thin strip type LD-AST on clean suspension and positive blood culture
Protocol: Methicillin-resistant Staphylococcus aureus (MRSA 111 with not strong resistance) was spiked into 10 mL of whole blood samples at the nominal concentration of 5-10 CFU/ml. Then, an FA Plus aerobic blood culture bottles were inoculated with 10 mL of spiked whole blood and incubated at 37° C. until the culture turns positive. At this time, 30 μL of glycerol stock of the bacterial cell was inoculated in 3 mL of TSB and incubated at 37° C. for 3 hr with shaking at 150 rpm. Based on OD measurements, serial dilutions of the respective bacteria were prepared in TSB at a nominal concentration of 10^5 CFU/mL. An aliquot of the positive blood sample was diluted in TSB by 1000-fold. The two samples were simultaneously tested for susceptibility against Oxacillin with “thin strip” type LD-AST. The results, which are presented in FIG. 30, indicate similar MIC value of 1 μg/mL.

Staphylococcus aureus [5] = assay: broth microdilution AST according to Example 11
Protocol: as §1

S. aureus = assay: antimicrobial dilution pipetted directly onto thin-type gel microwells (no annular disk); settings: Staphylococcus aureus; 20 μL of two-fold dilutions pipetted onto thin-type microwells; 37° C. until control colonies visible
Protocol: In order to verify the observed difference between the MIC for the low-volume gel and the typical MIC values reported by EUCAST for S. aureus and Vancomycin was not caused by the geometry of the annular disk and its corresponding diffusion dynamics, the following experiment was performed. A two-fold serial dilution of the target antimicrobial agent was prepared in water. Then 20 μL of each dilution was pipetted onto the surface of “thin-type” microwells that were prepared according to the method of Example 10. After about 10 minutes, the antimicrobial agent solution had diffused into top of the gel. 1 μL of a microbial cell suspension was then added and together they were incubated at 37° C. until the microbial colonies at the control well (zero antimicrobial agent concentration) were visible. The MIC found in this manner was 3 μg/mL.

Staphylococcus aureus [6] = assay: LD-AST on annular-disk microwell strips
Protocol: In this case, the cell proliferation at the borderline LD-AST unit, such as the one labeled 12 μg, would be preferably determined by image processing. For example, time-lapse microscopic images can be acquired are aligned and difference images (obtained via subtraction of aligned images) may be processed to detect evidence of growth.
In order to further illustrate the insensitivity of the LD-AST to variations of the antimicrobial agent concentration at the ROIs during the first hour of the assay, the assay was performed in two different protocols; a first direct protocol involving immediate inoculation of the microbial cell suspension after contacting the annular disks with the solid phase growth medium, and a second delayed protocol in which the microbial cell suspension was inoculated 1 hour after contacting the annular disks with the solid phase growth medium.
Blank AST paper disks (Hardy Diagnostics, Z7121) that were 6.35 mm in diameter and 0.75 mm thick, were modified to include a 3 mm hole in the center.
Each paper disk has the capacity to absorb approximately 20 μL of liquid before being saturated. For each antibiotic, a two-fold serial dilution in water was made which included concentrations near its suspected MIC value. The disks were separated into individual wells of a 96-well microplate, and then 20 μL of each antibiotic dilution was pipetted over paper disks ensuring that the entire disk was evenly wetted. After incubation for about 20 minutes at room temperature, the disks in the microplate were dried in vacuum desiccator. Alternatively, individual disk separated in the microplate well could be soaked in an excess volume (30 to 50 μL) of the antibiotic dilution. After incubation, the excess fluid is removed by pipette and dried in a vacuum desiccator. The microplate was then covered with an adhesive cover and stored at 4° C.
Tryptic soy agar blood base (Hardy Diagnostics C5221) was prepared with 1% defibrinated sheep's blood according to the manufacturer. While the agar was still warm (45 to 50° C.), it was pipetted into the wells of an 12×8-well strip plate. For “Thin-gel” case, approximately 50 μL of agar was dispensed into an individual well to give a gel thickness of ~1 mm. For the “mid-thick gel” case, approximately 150 μL of agar was dispensed to gel a gel thickness of ~3 mm. Finally, for the “thick gel” case, approximately 350 μL of agar was dispensed to gel a gel thickness of ~7 mm. The agar gels were then cooled to room temperature to solidify, and then either used immediately or stored at 4° C. with an adhesive cover over the wells to prevent gel drying. […]

Staphylococcus aureus [7] = assay: Vitek 2 reference AST
[8] = system: Candida albicans (ATCC 90028); assay: LD-AST against fungal cells; settings: thin strip LD-AST; images at 3 and 4 hours, verified overnight
Protocol: A series of LD-AST units having different levels of Amphotoricin B were prepared and tested against Candida albicans (ATCC 90028). […] Therefore, the MIC was determined to be 2 μg/mL. The conclusion of growth at the LD-AST unit corresponding to 1 μg/mL, though not easily noticed in FIG. 29 by visual inspection of t=3 and 4 incubation images, was verified by referring to the overnight incubation row in the figure.
To align imaging data acquired at different time points (2, 3, 4 and 5 hours after seeding), 2D-2D registration (only translation and rotation are permitted) with rigid transformation constrains was performed. The corresponding intensity feature points between the previous time point (tn-1 or tn-2) image, so-called reference, and each further image, so-called floating image, were automatically identified using the key-point detector SURF and used for aligning imaging date with respect to the reference data. Intensity features present at the reference image were classified as background while intensity features appearing on further images (cells/bugs) were classified as foreground. The position of given individual microcolonies have been marked in consecutive images. Setting the background allows enhanced detection of microcolonies and their growth.

With CCn1cc(C(=O)O)c(=O)c2cc(F)c(N3CCNCC3)cc21 [Norfloxacin] the MIC (Escherichia coli [1]; Escherichia coli, low volume gel strip, no growth between 3 and 4 hours of incubation, verified overnight, read-out: MIC value (estimated effective concentration)) was 0.1 µg/mL (≈ 0.313 µM), the “classification of MIC per CLSI/EUCAST interpretation standards” value (Escherichia coli [1]; LD-AST MIC, low volume gel) was “S” and the “antimicrobial mass label of the microwell at which microbial growth halts” value (Escherichia coli [1]; high volume (gel volume of 350 μL in microwell)) was 1 µg. For the same molecule, the “antimicrobial mass label of the microwell at which microbial growth halts” value (Escherichia coli [1]; intermediate volume (gel volume of 150 μL in microwell)) was 1 µg, the “antimicrobial mass coated on annular disk of the LD-AST unit showing lack of visible growth” value (Escherichia coli [1]; low volume gel, between 3 and 4 hours of incubation) was 0.5 µg and the MIC value (Escherichia coli [2]) was 0.1 µg/mL (≈ 0.313 µM). The “susceptibility category reported by Vitek 2” value (Escherichia coli [3]) was “S” and the MIC (Escherichia coli [3]; Escherichia coli, read-out: MIC value reported by Vitek 2) was ≤ 0.5 µg/mL.

For Cc1onc(-c2ccccc2)c1C(=O)N[C@@H]1C(=O)N2[C@@H]1SC(C)(C)[C@@H]2C(=O)O [Oxacillin], the MIC ([4]; Staphylococcus aureus, MRSA, clean cell suspension in TSB, nominal 10^5 CFU/mL) was 1 µg/mL (≈ 2.49 µM) and the MIC value ([4]; positive blood culture diluted in TSB by 1000-fold) was 1 µg/mL (≈ 2.49 µM).

In the case of CN[C@H](CC(C)C)C(=O)N[C@H]1C(=O)N[C@@H](CC(N)=O)C(=O)N[C@H]2C(=O)N[C@H]3C(=O)N[C@H](C(=O)N[C@H](C(=O)O)c4cc(O)cc(O)c4-c4cc3ccc4O)[C@H](O)c3ccc(c(Cl)c3)Oc3cc2cc(c3O[C@@H]2O[C@H](CO)[C@@H](O)[C@H](O)[C@H]2O[C@H]2C[C@](C)(N)[C@H](O)[C@H](C)O2)Oc2ccc(cc2Cl)[C@H]1O [Vancomycin], the MIC (Staphylococcus aureus [5]; Staphylococcus aureus, broth microdilution, Example 11) was 1.5 µg/mL (≈ 1.04 µM), the “classification of MIC according to CLSI” value (Staphylococcus aureus [5]; broth microdilution MIC) was “S” and the MIC (S. aureus) was 3 µg/mL (≈ 2.07 µM). For the same molecule, the “classification of MIC per CLSI interpretation standards” value (Staphylococcus aureus [6]; LD-AST MIC, thin type) was “I”, the “MIC, direct protocol versus delayed (1 hour) inoculation protocol” value (Staphylococcus aureus [6]; mid-thick strip, 4 hours after inoculation (FIG. 28)) was “equal” and the “growth at borderline LD-AST unit (difference image of time-lapse images)” value (Staphylococcus aureus [6]; mid-thick type, unit labeled 12 μg, verified by overnight incubation) was “continued to grow”. The MIC value (Staphylococcus aureus [6]; thin type LD-AST unit (FIG. 27A), 3 and 4 hours incubation) was 3 µg/mL (≈ 2.07 µM), the “susceptibility category from Vitek 2” value (Staphylococcus aureus [7]) was “S” and the MIC (Staphylococcus aureus [7]; Staphylococcus aureus, read-out: MIC value from Vitek 2) was 1 µg/mL (≈ 0.69 µM).

With Amphotoricin B the MIC [8] was 2 µg/mL.
